Measurements as given in ChEMBL document CHEMBL1128072, “The synthesis and biological evaluation of hypericin analogs” (Bioorg Med Chem Lett, 1995).
Calls of active or inactive are those of the source. The rule behind the calls is not given here.

Experiments:
[1] = tested on: Equine infectious anemia virus; assay: In vitro anti-retroviral activity against equine infectious anemia virus(EIAV); compound was active; type: functional, organism-based
[2] = tested on: Equine infectious anemia virus; assay: In vitro anti-retroviral activity against equine infectious anemia virus(EIAV); Inactive; type: functional, organism-based

SMILES | Activity [1] | Activity [2]
COc1cc(O)c2c(=O)c3c(O)cc(O)c4c5c(O)cc(O)c6c(=O)c7c(O)cc(OC)c8c1c2c(c34)c(c65)c78 | Active | –
Cc1cc(O)c2c(=O)c3c(O)cc(O)c4c5c(O)cc(O)c6c(=O)c7c(O)cc(C)c8c1c2c(c34)c(c78)c65 | Active | –
Cc1c(O)c2c(=O)c3c(O)c(C)c(O)c4c5c(O)c(C)c(O)c6c(=O)c7c(O)c(C)c(O)c8c(c1O)c2c(c34)c(c78)c65 | – | inactive
O=c1c2c(O)cc(O)c3c4c(O)cc(O)c5c(=O)c6c(O)cc(O)c7c8c(O)cc(O)c1c8c(c23)c(c54)c67 | – | inactive
